Results published in US20230123635A1, “Compositions and Methods for Detecting Molecular Targets on Chromosomal DNA” (New England Biolabs, Inc., priority 2020, published 2023).

Columns and labels:
[1] = system: DNA-Nt.CviPII-Protein A complex; assay: Gel-shift assay: dissociation of the DNA-Nt.CviPII-Protein A complex by heparin; format: binding; details: 3.2 μM Nt.CviPII-Protein A, NEBuffer 2 without magnesium, 50 μl
Experimental: Increasing amounts of heparin disrupts complex formation. Nicking activity is prevented by the absence of magnesium ions in the buffer.
From left to right: C is a control that is DNA in the absence of a NEFP or heparin. 0 is a control in which nicking endonuclease was added to DNA in the absence of heparin. The DNA-NEFP complex (DNA-Nt.CviPII-Protein A complex) is seen as a band at the top of the lane.
To establish that the inhibitory effect of heparin, sodium salt in untethered Nt.CviPII-Protein A fusion activity was due to selective dissociation between DNA substrate and fusion enzyme, a gel-shift assay was performed. Double stranded DNA substrate containing constant amounts of Nt.CviPII binding domains (CCA, 5′[…]-F, F=fluorescein (SEQ ID NO:9)) and 3.2 μM Nt.CviPII-Protein A fusion were combined in the presence of 1×NEBuffer 2 in the absence of magnesium for 30 minutes at room temperature to enable an enzyme-substrate complex to be formed. Increasing amounts of heparin, sodium salt (0, 2.3, 4.6, 1, 20, 42, 83, 166, 330 μg/ml) was added to the total 50 μl reaction volume. It was observed that a heparin concentration of greater than 0.2 mgs/ml (at least […]) enabled complete dissociation of the DNA-Nt.CviPII-Protein A complex as observed by the appearance of bands corresponding to DNA alone in a native 6% retardation gel (Thermo Fisher Scientific, Waltham, Mass.). […]

[2] = system: Nt.CviPII-Protein A; assay: Inhibition of the nicking activity of Nt.CviPII-Protein A fusion by heparin sodium salt; format: biochemical; details: 2.5 units Nt.CviPII-Protein A, 0.5 μg pUC19 DNA, NEBuffer 2, 40 minutes 37° C.
Experimental: In lanes 1-9, 2.5 units of NEFP was added to 0.5 μgs of plasmid DNA in the presence of increasing amounts of heparin (0.15-10 mg/ml). Digestion was not observed when 0.3 mg heparin/ml or greater amounts are present.
To determine the effect of heparin sodium salt on the inhibition of nicking activities of Nt.CviPII-Protein A fusion, reaction tubes containing 10, 5, 2.5, 1.25, 0.62, 0.31, 0.15, and 0 mg/ml heparin, sodium salt were added to a 50 μl reaction, consisting of 5 μl 10×NEBuffer 2, 2.5 units Nt.CviPII-Protein A (as described in Example 1(B)), and 0.5 μg pUC19 DNA and incubated for 40 minutes 37° C. 10 μl of DNA loading dye mix (5×) was added to the samples and were resolved on a 10% polyacrylamide gel. The gel was stained with SYBR® Green (Molecular Probes, Eugene, Oreg.) and scanned on a Typhoon® imager (GE Healthcare Bio-Sciences, Marlborough, Mass.).

[3] = system: antibody-Protein A/G complex; assay: Effect of heparin on the antibody-Protein A/G complex (magnetic beads, SDS gel); format: binding; details: 0.125, 0.25, 0.5 and 1 mg/ml Heparin, 30 minutes, room temperature, Protein A/G magnetic beads with IgG, sodium salt
From the text: The numbers on the top indicate added heparin quantity in the reaction mgs/ml.
Antibody heavy and light chains that are bound to Protein A/G can be released by boiling and resolved on an SDS gel (B). Any antibody that was free in solution having been eluted or displaced by heparin from Protein A/G could be visualized without boiling (E).
To determine the effect of heparin on the formation of the antibody-Protein A/G complex, 5 mgs of immobilized and covalently cross-linked protein A/G magnetic beads were bound to 50 μgs of IgG molecules in a 50 μl reaction volume containing 1×PBST at room temperature for 30 minutes. The complex was washed 3 times using 1 ml of 1×PBST and incubated with 0.125, 0.25, 0.5 and 1 mg/ml Heparin for 30 minutes at room temperature in 25 μl total volume. The bead-bound (B) and unbound or bead elution (E) fractions were collected, SDS sample buffer (New England Biolabs, Ipswich, Mass.) was added and the samples were incubated at 95° C. for 5 minutes. Both B and E samples were resolved on tricine 10% acrylamide gel and stained for protein.

[4] = system: pBR322 circular double stranded DNA; assay: Nicking activity of Protein G/A-gHNH fusion on plasmid DNA (agarose gel); format: biochemical; details: 50 μl, 37° C., 1 hour; for amount of fusion enzyme giving complete nicking/digestion of DNA substrate: 1 μg pBR322, NEBuffer 2 with manganese ions (1 mM) instead of magnesium
Experimental: The nicking activity of Protein G-HNH was compared to a second non-fused nicking endonuclease (Nt.CviPII) (2 units) in the same gel to determine a generalized and consistent cleavage profile and was also compared to a control in the lane labeled 0 containing no nicking endonuclease either fused or unfused.
Protein G/A-gHNH fusion nicking activity was tested on pBR322 circular double stranded DNA using NEBuffer 2 in which magnesium ions were replaced by the same amount of manganese ions (1 mM). 1 μg of plasmid was used with 0.03 to 2 units of Protein G/A-gHNH fusion enzyme in a two-fold serial dilutions (2, 1, 0.5, 0.25, 0.125, 0.06, 0.03 units) in a total volume of 50 μl incubated at 37° C. for 1 hour. 10 μl of DNA loading dye mix (5×) was added to the nicked DNA. The nicked DNA samples were resolved on a 1% agarose gel and visualized under UV light. DNA fragment size was estimated along with 2 log DNA ladder (New England Biolabs, Ipswich, Mass.) and positive control Nt.CviPII (2 units) of the non-fused nicking endonuclease, (New England Biolabs, Ipswich, Mass.) digested pBR322 DNA (FIG. 1B). […] A representative figure supporting this conclusion is provided in FIG. 1B for Protein G-gHNH fusions.

amount of fusion enzyme giving complete nicking/digestion of DNA substrate [4]	amount of fusion enzyme giving complete nicking/digestion of DNA substrate ([4]; listed as Protein G-gHNH fusion)	amount of fusion enzyme giving partial digestion of DNA ([4]; 1 μg pBR322, NEBuffer 2 with manganese ions)	Molecule	heparin concentration enabling complete dissociation of the DNA-Nt.CviPII-Protein A complex (parenthesis) [1]	heparin concentration enabling complete dissociation of the DNA-Nt.CviPII-Protein A complex ([1]; native 6% retardation gel)	heparin concentration giving total inhibition of nicking (no digestion observed) [2]	heparin concentration giving total inhibition of nicking (no digestion observed) ([2]; listed as Heparin sodium salt)	effect of heparin on antibody bound to Protein A/G ([3]; listed as Heparin)	effect of heparin on antibody bound to Protein A/G [3]
–	–	–	heparin, sodium salt	at least 10 ng/μl	greater than 0.2 mgs/ml	≥ 0.3 mg/mL	0.15 to 0.31 mg/mL	cannot dissociate Protein A/G-antibody reaction	no elution or displacement of antibody occurred
0.25 units	greater than 0.06 units	0.03 units	Protein G-gHNH: NEFP: Protein G-linker-gHNH nicking endonuclease (SEQ ID NO: 5) (protein) MKGETTTEAVDAATAEKVFKQYANDNGVDGEWTYDDATKTFTVTEKPEVIDASELTPAVTTYKLVINGKTLKGETTTEAVDAATAEKVFKQYANDNGVDGEWTYDDATKTFTVTEKPEVIDASELTPAVTTYKLVINGKTLKGETTTKAVDAETAEKAFKQYANDNGVDGVWTYDDATKTFTVTEGSATIVKKPLRPCCEFHCYNLTRERYCEEHRYKEKETQQDKNRYYDRFKRDKESTAFYRSKAWERLREQALMRDKGLCLHCKNNRKIKVADMVDHIIPIKVDPSLKLKLENLQSLCNPCHNRKTAEDKKKYG	–	–	–	–	–	–
